The record followed here is PMC7509555, “An In Vitro Study for Evaluating Permeability and Metabolism of Kurarinone” (Evidence-based Complementary and Alternative Medicine : eCAM, 2020).

Read-outs that look alike come from different tables or passages of the source. Bounds are passed on as bounds.

Type in all cases: in vitro ADME
In one series the target is T1, UGT1A1 (Homo sapiens, UniProt P22309).
T1 construct: purchased BD Gentest Corp. (Woburn, MA, USA)
T1 sequence (P22309 26-533): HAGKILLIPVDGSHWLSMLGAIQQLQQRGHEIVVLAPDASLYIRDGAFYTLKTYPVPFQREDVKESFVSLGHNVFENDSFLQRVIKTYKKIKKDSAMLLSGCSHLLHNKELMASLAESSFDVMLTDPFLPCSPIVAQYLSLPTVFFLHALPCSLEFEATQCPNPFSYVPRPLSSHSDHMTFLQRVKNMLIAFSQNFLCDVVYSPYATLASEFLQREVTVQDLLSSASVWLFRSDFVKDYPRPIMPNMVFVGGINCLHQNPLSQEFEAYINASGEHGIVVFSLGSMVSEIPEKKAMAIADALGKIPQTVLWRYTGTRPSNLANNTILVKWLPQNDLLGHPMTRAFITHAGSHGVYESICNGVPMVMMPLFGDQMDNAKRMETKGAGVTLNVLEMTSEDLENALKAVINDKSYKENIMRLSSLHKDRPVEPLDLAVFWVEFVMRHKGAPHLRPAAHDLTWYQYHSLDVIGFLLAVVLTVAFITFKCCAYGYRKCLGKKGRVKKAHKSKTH
Put plainly: Inhibition of recombinant UGT1A1-catalyzed 4-MU glucuronidation. On the procedure: (§1) 4-MU, a nonspecific probe substrate for UGT isoforms, was used to explore the inhibition of UGT isoforms by kurarinone. The mixture (200 μL total volume) contained recombinant UGTs (final concentrations: 0.125, 0.05, 0.025, 0.05, 0.025, 0.05, 0.05, 0.25, 0.05, and 0.2 mg/mL for UGT1A1, UGT1A3, UGT1A6, UGT1A7, UGT1A8, UGT1A9, UGT1A10, UGT2B4, UGT2B7, and UGT2B15, respectively), 5 mM UDPGA, 5 mM MgCl2, 50 mM Tris-HCl buffer (pH 7.4), and 4-MU in the absence or presence of various concentrations of kurarinone. The concentrations of 4-MU were as follows: 110 μM for UGT1A1 and UGT1A6, 1200 μM for UGT1A3 and UGT2B4, 15 μM for UGT1A7, 750 μM for UGT1A8, 30 μM for UGT1A9, 80 μM for UGT1A10, 350 μM for UGT2B7, 250 μM for UGT2B15, and 2000 μM for UGT2B17. Kurarinone was dissolved in methanol, and the final concentration of methanol was 0.5% (v/v). Reactions were initiated by adding UDPGA, and incubations were carried out at 37°C in a shaking waterbath for 60 min. The reactions were terminated by addition of 200 μL of ice-cold acetonitrile containing 7-hydroxycoumarin (100 μM) as the internal standard. The incubation mixture was then centrifuged at 20,000 ×g for 20 min to obtain the supernatant, and an aliquot of supernatant (20 μL) was transferred to an autoinjector vial for HPLC analysis.

The next series deals with T2, UGT1A6 (Homo sapiens, UniProt P19224).
T2 construct: purchased BD Gentest Corp. (Woburn, MA, USA)
T2 sequence (P19224 27-532): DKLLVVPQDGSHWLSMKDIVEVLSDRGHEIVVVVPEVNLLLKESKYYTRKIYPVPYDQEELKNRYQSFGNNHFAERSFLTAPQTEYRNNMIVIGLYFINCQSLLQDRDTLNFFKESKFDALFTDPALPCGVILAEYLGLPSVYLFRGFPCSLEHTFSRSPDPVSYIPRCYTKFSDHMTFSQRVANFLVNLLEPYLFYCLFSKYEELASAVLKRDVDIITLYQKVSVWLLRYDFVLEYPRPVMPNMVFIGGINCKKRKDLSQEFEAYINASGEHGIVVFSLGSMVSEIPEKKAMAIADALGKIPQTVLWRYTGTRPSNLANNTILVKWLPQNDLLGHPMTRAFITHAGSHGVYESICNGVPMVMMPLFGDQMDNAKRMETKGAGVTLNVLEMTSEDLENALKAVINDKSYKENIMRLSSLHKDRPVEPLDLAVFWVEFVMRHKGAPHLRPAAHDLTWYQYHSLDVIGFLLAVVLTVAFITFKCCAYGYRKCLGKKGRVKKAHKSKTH
Kind of series: Inhibition of recombinant UGT1A6-catalyzed 4-MU glucuronidation. To be noted: recombinant UGT1A6, pH 7.4, probe 4-MU (110 μM), 100 μM kurarinone, recombinant UGT. On the procedure:
as §1

The nature of the next series: PAMPA permeability study. To be noted: for Papp at 5 h: PAMPA, room temperature, read-out: PAMPA effective permeability Pe. How it is done:
The PAMPA method was used to measure the membrane permeability values, as described by Singh et al. in an earlier study. Drug samples were dissolved in DMSO and then diluted to 10 mM concentrations as a stock solution. 300 μL diluted drugs solution was filled in the PAMPA plate as the “donor” wells, and the 96-well filter plate with a synthetic phospholipid membrane was then placed on the donor wells. The “acceptor” wells were filled with 200 μl of buffer solution, and the PAMPA instruments were incubated at room temperature for 5 h. Kurarinone permeability was assessed in quadruplicate at pH 4.0 and 7.4. […] At the end of the incubation, kurarinone and the marker compounds in the donor and acceptor wells were determined by HPLC, and permeability was calculated.
For orientation: In PAMPA a lipid-coated filter parts donor from acceptor wells.

Broadly, the inhibition is the drop in the measured response relative to a control, in per cent. A word on the IC50: it is the concentration that gives 50% inhibition. The term Ki denotes a measure of affinity in units of concentration, obtained from inhibition or displacement. `C=C(C)[C@H](CC=C(C)C)Cc1c(O)cc(OC)c2c1O[C@H](c1ccc(O)cc1O)CC2=O` [Kurarinone]: the “inhibition type against UGT1A1” value at UGT1A1 (Dixon and Lineweaver–Burk plots) is listed as “noncompetitive”. For the same compound, the inhibition at 60 min, 100 μM at UGT1A1 (human, recombinant UGT1A1, pH 7.4, probe 4-MU (110 μM), 100 μM kurarinone, 4-MU glucuronidation, recombinant UGT) was above 90%; on UGT1A6, above 90%. Moreover, the IC50 at UGT1A1 (recombinant UGT1A1, 4-MU glucuronidation, read-out: IC50 against UGT1A1) is 13.6 µM. The Ki at UGT1A1 (second plot of slopes from Lineweaver–Burk plots) turned out to be 13 µM. Also, the Papp at 5 h in “PAMPA permeability study” (pH = 4) is 3.87 ± 1.39 ×10⁻⁶ cm/s; in the series “PAMPA permeability study” (pH = 7), 2.14 ± 0.82 ×10⁻⁶ cm/s. The PAMPA permeability class result in the series “PAMPA permeability study” (pH 4.0 and 7.4) was “moderate permeability”.
